Results reported in patent publication US11925632B2, “Isoquinoline derivatives for use in treating GLUT1 deficiency syndrome” (GLIAPHARM SA, priority 2019, dated 2024).

What was measured:
[1] = test system: primary mouse astrocytes; assay: Extracellular lactate quantification (lactate release from primary astrocytes); type: cell-based
Experimental: (§1) Primary cultures of cerebrocortical astrocytes were obtained from 1 to 2-day-old OF1 mouse pups (Charles River). Briefly, cortices were isolated and minced in small pieces under a dissecting microscope. The cells were incubated for 30 min at 37° C. in a solution containing 20 U/ml papain, 1 mM L-cysteine and 10 kU/ml DNase I. After dissociation, papain activity was stopped by the addition of fetal calf serum (FCS). Single-cell suspension was then obtained by mechanical dissociation, which consisted in cells trituration in a DMEM D7777 medium supplemented with 44 mm NaHCO3, 10 ml/L antibiotic/antimycotic solution and 10% FCS. The cells were seeded at an average density of ˜10′000 cells/cm^2 on poly-D-lysine coated 96- or 12-well culture plates, depending on their use, and grown in DMEM D7777 medium supplemented with 44 mm NaHCO3, 10 ml/L antibiotic/antimycotic solution and 10% FCS at 37° C. in a humidified atmosphere containing 5% CO2/95% air. Culture medium was renewed twice a week. Cells were stimulated and harvested between DIV14 and DIV17, when confluence and cell growth were optimal.
Secretion of L-lactate was measured in the extracellular medium of 96-well plated astrocytes after 90 min stimulation (at 37° C., in 5% CO2/95% air conditions) with Vehicle (DMSO), the compounds of the invention (100 nM to 100 μM) or positive control. […] Stimulation medium was composed of D5030 medium complemented with 5 mM D-glucose and 44 mM sodium bicarbonate, pH 7.2. To quantify lactate concentrations in the extracellular medium, 200 μl of a 0.2M Glycine-semicarbazide buffer (pH 10) containing 3 mM NAD and 14 U/ml LDH was added to each well of a 96-well plate containing 30 μl aliquots of extracellular medium. Samples were incubated at 37° C. for 1 h. Fluorescence intensity (340 nm excitation/450 nm emission), which represents the amount of NADH produced, was measured, and lactate concentration values were determined relative to a standard curve of L-lactate concentrations.
The release of lactate from primary mouse astrocytes treated with compound (1) at 10 μM was quantified by (FIG. 1). Accumulation of lactate in the extracellular medium was measured over a period of 1.5 h. […] Maximal effects of the compounds were 38.6% (1), 38% (2), 31% (4) and 76% (3) when compared to the effect of the positive control (100%) for compounds (1) to (4), respectively.

[2] = test system: primary astrocytes; assay: Intracellular glycogen quantification; type: cell-based, mouse; conditions: 10 μM, 3 h, vs vehicle
Experimental: Primary cultures of cerebrocortical astrocytes were obtained from 1 to 2-day-old OF1 mouse pups (Charles River). Briefly, cortices were isolated and minced in small pieces under a dissecting microscope. The cells were incubated for 30 min at 37° C. in a solution containing 20 U/ml papain, 1 mM L-cysteine and 10 kU/ml DNase I. After dissociation, papain activity was stopped by the addition of fetal calf serum (FCS). Single-cell suspension was then obtained by mechanical dissociation, which consisted in cells trituration in a DMEM D7777 medium supplemented with 44 mm NaHCO3, 10 ml/L antibiotic/antimycotic solution and 10% FCS. […]
Astrocytes grown on 12-well plates were used for intracellular glycogen quantifications. […]
First, the amount of proteins in each sample was quantified to assess whether harvested astrocytes from primary cell cultures yielded enough and equivalent amounts of proteins on each replicates. Proteins were quantified using the micro BCA Protein Assay kit (Thermo Scientific), according to manufacturer's instructions. Next, intracellular glycogen concentrations were quantified using a 250 μl-aliquot of the same stimulated, thawed, and sonicated cell lysate. […] Fluorescence intensity (340 nm excitation/440 nm emission) was measured using a Safire 2 spectrophotometer. […]

[3] = test system: primary astrocytes; assay: MTT mitochondrial activity assay; type: cell-based; conditions: Mus musculus, Astrocyte, 24 h treatment
Experimental: as §1
To monitor mitochondrial activity in astrocytes, which is linked to the metabolic process of glycolysis and production of lactate, astrocytes in 96-well plates were stimulated for 24 h (37° C. 5% CO2/95% air) with the compounds of the invention ranging from 0.2 to 200 μM.
After stimulation, 5 mg/ml thiazol blue tetrazolium bromide (MTT) in D5030 medium complemented with 5 mM D-glucose and 44 mM sodium bicarbonate (pH 7.2) was added to each well, and cells were incubated for 4 h at 37° C. (5% CO2). The medium was then removed and the amount of reduced MTT, i.e. formazan, solubilized in DMSO (50 μl/well) was determined using a spectrophotometer (absorbance of 570 nm).
The mitochondrial activity in primary astrocytes treated with Compounds (1) to (4) at concentrations ranging from 1 nM to 200 μM. After 24 h, mitochondrial activity was monitored in MTT colorimetric assay as described above (FIG. 3).

COc1cc2ccnc(Nc3ccc(OC(F)(F)F)cc3)c2cc1OC [Example 1, 6,7-dimethoxy-N-(4-(trifluoromethoxy)phenyl)isoquinolin-1-amine]
EC50 ([1]; Astrocyte, 1.5 h, primary mouse astrocytes, 90 min stimulation, read-out: EC50 of astrocyte-mediated lactate secretion): 7.02 µM
Emax ([1]; Mus musculus, Astrocyte, 1.5 h, positive control CCCP 2 μM, 90 min, read-out: Maximal effect on lactate secretion compared to the effect of the positive control (100%)): 38.6%
Concentration at which effect on lactate release is already significant ([1]; primary mouse astrocytes, 90 min): below 1 μM
Intracellular glycogen levels [2]: significantly enhances the degradation of intracellular glycogen
IC50 [3]: 34.4 µM
